Assay results reported in PubChem BioAssay AID2060892 (Molecular Pharmacology Branch, DTP, NCI, 2025).

Test system: HOP-62 complex spheroids with HUVEC/MSC, viability
Test: Anticancer human tumor HOP-62 cell line growth inhibition [RAS];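 also: spheroids exposed to agents for seven days before readout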;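 as to viability, T/C: 100% = DMSO vehicle control viability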
Details: for IC50: curve of first compound; for viability, T/C: stronger effect = lower value; active = viability on the fitted dose curve at most 10% of control; inactive = the rest
In short: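 Agents were tested in combination matrices in half-log decrements from a top concentration at or near clinical Cmax (10 microM if undetermined). Targets were multi-cell spheroids of tumour lines plus HUVEC and MSC stromal cells.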

C=CC(=O)N1CCN(c2nc(OCC3CCCN3C)nc3c(F)c(-c4nc(N)cc(C)c4C(F)(F)F)c(Cl)cc23)C(C)C1 (centres undefined) + CCn1c(-c2cccnc2C(C)OC)c2c3cc(ccc31)N1CCOC(CC(NC(=O)C(C(C)C)N(C)C(=O)C3(F)CCN(C(=O)C#CC(C)(C)N(C)C)CC3)C(=O)N3CCCC(N3)C(=O)OCC(C)(C)C2)C1
> 1 µM: IC50 (second compound 0.000949 µM) | IC50 (second compound 0.003 µM) | IC50 (second compound 0.00949 µM) | IC50 (second compound 0.03 µM) | IC50 (second compound 0.0949 µM) | IC50 (second compound 0.3 µM)
inactive: viability, T/C (second compound 0.000949 µM, first compound 0.00316 µM) 103% | viability, T/C (second compound 0.000949 µM, first compound 0.01 µM) 101% | viability, T/C (second compound 0.000949 µM, first compound 0.0316 µM) 69.5% | viability, T/C (second compound 0.000949 µM, first compound 0.1 µM) 88.2% | viability, T/C (second compound 0.000949 µM, first compound 0.316 µM) 95.6% | viability, T/C (second compound 0.000949 µM, first compound 1 µM) 71.1% | viability, T/C (second compound 0.003 µM, first compound 0.00316 µM) 88.7% | viability, T/C (second compound 0.003 µM, first compound 0.01 µM) 87.3% | viability, T/C (second compound 0.003 µM, first compound 0.0316 µM) 76.8% | viability, T/C (second compound 0.003 µM, first compound 0.1 µM) 92.5% | viability, T/C (second compound 0.003 µM, first compound 0.316 µM) 84.9% | viability, T/C (second compound 0.003 µM, first compound 1 µM) 72.9% | viability, T/C (second compound 0.00949 µM, first compound 0.00316 µM) 90.4% | viability, T/C (second compound 0.00949 µM, first compound 0.01 µM) 87.6% | viability, T/C (second compound 0.00949 µM, first compound 0.0316 µM) 85.3% | viability, T/C (second compound 0.00949 µM, first compound 0.1 µM) 89.8% | viability, T/C (second compound 0.00949 µM, first compound 0.316 µM) 91% | viability, T/C (second compound 0.00949 µM, first compound 1 µM) 74.7% | viability, T/C (second compound 0.03 µM, first compound 0.00316 µM) 91.3% | viability, T/C (second compound 0.03 µM, first compound 0.01 µM) 92% | viability, T/C (second compound 0.03 µM, first compound 0.0316 µM) 87.7% | viability, T/C (second compound 0.03 µM, first compound 0.1 µM) 94.9% | viability, T/C (second compound 0.03 µM, first compound 0.316 µM) 79.1% | viability, T/C (second compound 0.03 µM, first compound 1 µM) 84.3% | viability, T/C (second compound 0.0949 µM, first compound 0.00316 µM) 86.5% | viability, T/C (second compound 0.0949 µM, first compound 0.01 µM) 91.2% | viability, T/C (second compound 0.0949 µM, first compound 0.0316 µM) 83.3% | viability, T/C (second compound 0.0949 µM, first compound 0.1 µM) 92.7% | viability, T/C (second compound 0.0949 µM, first compound 0.316 µM) 71.8% | viability, T/C (second compound 0.0949 µM, first compound 1 µM) 87.6% | viability, T/C (second compound 0.3 µM, first compound 0.00316 µM) 95.4% | viability, T/C (second compound 0.3 µM, first compound 0.01 µM) 75.1% | viability, T/C (second compound 0.3 µM, first compound 0.0316 µM) 73% | viability, T/C (second compound 0.3 µM, first compound 0.1 µM) 70.2% | viability, T/C (second compound 0.3 µM, first compound 0.316 µM) 74.6% | viability, T/C (second compound 0.3 µM, first compound 1 µM) 79.4%

CC1(C)CCC(Nc2ncc(C(F)(F)F)c(-c3c[nH]c4c(P(C)(C)=O)c(C#N)ccc34)n2)CN1 (centres undefined) + CCn1c(-c2cccnc2C(C)OC)c2c3cc(ccc31)N1CCOC(CC(NC(=O)C(C(C)C)N(C)C(=O)C3(F)CCN(C(=O)C#CC(C)(C)N(C)C)CC3)C(=O)N3CCCC(N3)C(=O)OCC(C)(C)C2)C1
0.202 µM: IC50 (second compound 0.03 µM)
inactive: viability, T/C (second compound 0.000949 µM, first compound 0.000949 µM) 108% | viability, T/C (second compound 0.000949 µM, first compound 0.003 µM) 94.5% | viability, T/C (second compound 0.000949 µM, first compound 0.00949 µM) 61.2% | viability, T/C (second compound 0.000949 µM, first compound 0.03 µM) 68.8% | viability, T/C (second compound 0.000949 µM, first compound 0.0949 µM) 80.4% | viability, T/C (second compound 0.000949 µM, first compound 0.3 µM) 44.4% | viability, T/C (second compound 0.003 µM, first compound 0.000949 µM) 105% | viability, T/C (second compound 0.003 µM, first compound 0.003 µM) 78.5% | viability, T/C (second compound 0.003 µM, first compound 0.00949 µM) 62.7% | viability, T/C (second compound 0.003 µM, first compound 0.03 µM) 73.5% | viability, T/C (second compound 0.003 µM, first compound 0.0949 µM) 62% | viability, T/C (second compound 0.003 µM, first compound 0.3 µM) 49.6% | viability, T/C (second compound 0.00949 µM, first compound 0.000949 µM) 97.3% | viability, T/C (second compound 0.00949 µM, first compound 0.003 µM) 60.6% | viability, T/C (second compound 0.00949 µM, first compound 0.00949 µM) 65.2% | viability, T/C (second compound 0.00949 µM, first compound 0.03 µM) 66.7% | viability, T/C (second compound 0.00949 µM, first compound 0.0949 µM) 61.6% | viability, T/C (second compound 0.00949 µM, first compound 0.3 µM) 52.5% | viability, T/C (second compound 0.03 µM, first compound 0.000949 µM) 86.8% | viability, T/C (second compound 0.03 µM, first compound 0.003 µM) 72.3% | viability, T/C (second compound 0.03 µM, first compound 0.00949 µM) 58.2% | viability, T/C (second compound 0.03 µM, first compound 0.03 µM) 54.4% | viability, T/C (second compound 0.03 µM, first compound 0.0949 µM) 42.8% | viability, T/C (second compound 0.03 µM, first compound 0.3 µM) 55.6% | viability, T/C (second compound 0.0949 µM, first compound 0.000949 µM) 83.3% | viability, T/C (second compound 0.0949 µM, first compound 0.003 µM) 58.5% | viability, T/C (second compound 0.0949 µM, first compound 0.00949 µM) 59.7% | viability, T/C (second compound 0.0949 µM, first compound 0.03 µM) 55.8% | viability, T/C (second compound 0.0949 µM, first compound 0.0949 µM) 33.1% | viability, T/C (second compound 0.0949 µM, first compound 0.3 µM) 55.1% | viability, T/C (second compound 0.3 µM, first compound 0.000949 µM) 73.3% | viability, T/C (second compound 0.3 µM, first compound 0.003 µM) 49.8% | viability, T/C (second compound 0.3 µM, first compound 0.00949 µM) 46.1% | viability, T/C (second compound 0.3 µM, first compound 0.03 µM) 40.6% | viability, T/C (second compound 0.3 µM, first compound 0.0949 µM) 40.1% | viability, T/C (second compound 0.3 µM, first compound 0.3 µM) 49.2%
0.0312 µM: IC50 (second compound 0.0949 µM)
> 0.3 µM: IC50 (second compound 0.000949 µM) | IC50 (second compound 0.003 µM) | IC50 (second compound 0.00949 µM)
0.00299 µM: IC50 (second compound 0.3 µM)
